Test results from ChEMBL document CHEMBL4382202, “1-(2-Hydroxybenzoyl)-thiosemicarbazides are promising antimicrobial agents targeting d-alanine-d-alanine ligase in bacterio” (Eur J Med Chem, 2018).
In brackets after ≈: the same amount, converted by molar mass.

Key:
[1] = system: Staphylococcus aureus; assay: Antibacterial activity against Staphylococcus aureus ATCC 25923 after 18 to 24 hrs by microdilution assay; type: functional
[2] = system: Enterococcus faecalis; assay: Antibacterial activity against Enterococcus faecalis ATCC 29212 after 18 to 24 hrs by microdilution assay; type: functional
[3] = target: T1, D-alanine--D-alanine ligase (Enterococcus faecalis (strain ATCC 700802 / V583), UniProt Q47758); assay: Inhibition of Enterococcus faecalis JH2-2 C-terminal 6His-tagged DdlB expressed in Escherichia coli LMG194 preincubated for 30 mins followed by substrate addition and measured after 20 mins by Biomol Green reagent assay
T1 sequence (Q47758 whole entry): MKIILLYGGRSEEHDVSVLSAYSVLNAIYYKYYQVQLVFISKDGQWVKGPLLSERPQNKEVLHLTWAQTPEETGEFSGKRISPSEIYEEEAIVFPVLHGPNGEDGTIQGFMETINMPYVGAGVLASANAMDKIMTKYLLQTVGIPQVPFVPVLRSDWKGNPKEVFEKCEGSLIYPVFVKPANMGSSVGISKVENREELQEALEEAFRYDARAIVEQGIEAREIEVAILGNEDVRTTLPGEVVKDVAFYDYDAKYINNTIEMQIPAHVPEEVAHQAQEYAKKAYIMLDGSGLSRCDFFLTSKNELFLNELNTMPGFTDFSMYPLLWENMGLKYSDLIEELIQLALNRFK

[4] = system: Enterococcus faecalis; assay: Antibacterial activity against vancomycin-resistant Enterococcus faecalis BM 4390 after 18 to 24 hrs by microdilution assay; type: functional
[5] = system: Enterococcus faecalis; assay: Antibacterial activity against vancomycin-resistant Enterococcus faecalis JH2-2::C1 after 18 to 24 hrs by microdilution assay; type: functional
[6] = system: Enterococcus faecalis; assay: Antibacterial activity against vancomycin-resistant Enterococcus faecalis BM 4575 clinical isolate after 18 to 24 hrs by microdilution assay; type: functional
[7] = system: Staphylococcus aureus; assay: Antibacterial activity against methicillin and vancomycin intermediate resistant Staphylococcus aureus MU50 after 18 to 24 hrs by microdilution assay; type: functional
[8] = system: Staphylococcus aureus; assay: Antibacterial activity against methicillin and linezolid resistant Staphylococcus aureus NRS 119 clinical isolate after 18 to 24 hrs by microdilution assay; type: functional
[9] = system: Staphylococcus aureus; assay: Antibacterial activity against community-acquired methicillin and erythromycin resistant Staphylococcus aureus SA 325 after 18 to 24 hrs by microdilution assay; type: functional
[10] = system: Staphylococcus aureus; assay: Antibacterial activity against hospital-acquired methicillin/ciprofloxacin/moxifloxacin resistant Staphylococcus aureus SA 481 after 18 to 24 hrs by microdilution assay; type: functional
[11] = system: Staphylococcus aureus; assay: Antibacterial activity against hospital-acquired methicillin and vacomycin resistant Staphylococcus aureus VRS-1 after 18 to 24 hrs by microdilution assay; type: functional

Compound	MIC [1] [µM]	MIC [2] [µM]	IC50 [3] [nM]	MIC [4] [µM]	MIC [5] [µM]	MIC [6] [µM]	MIC [7] [µM]	MIC [8] [µM]	MIC [9] [µM]	MIC [10] [µM]	MIC [11] [µM]
O=C(NNC(=S)Nc1cccc(Cl)c1)c1ccccc1	> 100	> 400									
O=C(NNC(=S)Nc1ccc(Cl)cc1)c1ccccc1	> 100	> 400									
O=C(NNC(=S)Nc1ccccc1Cl)c1ccccc1	> 100	> 400									
O=C(NNC(=S)Nc1ccccc1)c1ccccc1O	> 100	> 400	800	> 100	> 100	> 100	> 100	> 100	> 100	> 100	> 100
O=C(NNC(=S)Nc1ccc(Cl)c(Cl)c1)c1ccc(O)cc1	> 100	> 400									
O=C(NNC(=S)Nc1ccc(Cl)c(Cl)c1)c1cccc(O)c1	> 100	> 400									
O=c1c2ccccc2ncn1NC(=S)Nc1ccccc1	> 100	> 400									
O=C(NNC(=S)Nc1cccc2ccccc12)c1ccccc1O	> 100	> 400	520	> 100	> 100	> 100	> 100	> 100	> 100	> 100	> 100
O=C(NNC(=S)Nc1cccc(Cl)c1)c1ccccc1O	100 (≈ 32.2 µg/mL)	400 (≈ 129 µg/mL)	630	> 100	> 100	> 100	> 100	> 100	100 (≈ 32.2 µg/mL)	> 100	> 100
O=C(NNC(=O)c1ccccc1)Nc1ccc(Cl)c(Cl)c1	> 100	> 100									
O=C(NNC(=S)Nc1ccc(OC(F)(F)F)cc1)c1ccccc1O	25 (≈ 9.28 µg/mL)	50 (≈ 18.6 µg/mL)	700	> 100	100 (≈ 37.1 µg/mL)	> 100	> 100	100 (≈ 37.1 µg/mL)	100 (≈ 37.1 µg/mL)	> 100	> 100
Nc1ccc(C(=O)NNC(=S)Nc2ccc(Cl)c(Cl)c2)c(O)c1	> 100	> 400	990	> 100	> 100	> 100	> 100	> 100	> 100	> 100	> 100
O=C(NNC(=S)Nc1ccccc1F)c1ccccc1O	> 100	200 (≈ 61.1 µg/mL)	970	> 100	> 100	> 100	> 100	> 100	> 100	> 100	> 100
O=C(NNC(=O)c1ccccc1O)Nc1ccc(Cl)c(Cl)c1	> 100	> 100									
N#Cc1ccc(NC(=S)NNC(=O)c2ccccc2O)cc1	> 100	100 (≈ 31.2 µg/mL)	510	> 100	> 100	> 100	> 100	> 100	> 100	> 100	> 100
O=C(NNC(=S)Nc1ccc(Cl)c(Cl)c1)c1ccc(I)cc1O	100 (≈ 48.2 µg/mL)	> 400	930	> 100	> 100	> 100	> 100	> 100	> 100	> 100	> 100
O=C(NNC(=S)Nc1ccc(OCc2ccccc2)cc1)c1ccccc1O	100 (≈ 39.3 µg/mL)	> 400	990	> 100	> 100	> 100	> 100	> 100	> 100	> 100	> 100
O=C(NNC(=S)Nc1ccccc1F)c1ccccc1	> 100	> 400									
O=C(NNC(=S)Nc1ccccc1Cl)c1ccccc1O	> 100	400 (≈ 129 µg/mL)	790	> 100	> 100	> 100	> 100	100 (≈ 32.2 µg/mL)	100 (≈ 32.2 µg/mL)	100 (≈ 32.2 µg/mL)	100 (≈ 32.2 µg/mL)

Compound	MIC [1] [µM]	MIC [2] [µM]	IC50 [3] [nM]	MIC [4] [µM]	MIC [5] [µM]	MIC [6] [µM]	MIC [7] [µM]	MIC [8] [µM]	MIC [9] [µM]	MIC [10] [µM]	MIC [11] [µM]
O=C(NNC(=S)Nc1ccc(F)cc1)c1ccccc1	> 100	> 400									
CCCCCNC(=S)NNC(=O)c1ccccc1O	> 100	> 400	930	> 100	> 100	> 100	> 100	> 100	> 100	> 100	> 100
O=C(NNC(=S)Nc1cccc(F)c1)c1ccccc1O	> 100	200 (≈ 61.1 µg/mL)	100	> 100	> 100	> 100	> 100	> 100	> 100	> 100	> 100
O=C(NNC(=S)Nc1cccc(F)c1)c1ccccc1	> 100	> 400									
O=C(NNC(=S)Nc1ccc([N+](=O)[O-])cc1)c1ccc(O)cc1	> 100	> 400									
COc1ccc(NC(=S)NNC(=O)c2ccccc2O)cc1	> 100	> 400	710	> 100	> 100	> 100	> 100	> 100	> 100	> 100	> 100
O=C(NNC(=S)Nc1ccc(F)cc1)c1ccccc1O	> 100	200 (≈ 61.1 µg/mL)	840	> 100	> 100	> 100	> 100	> 100	> 100	> 100	> 100
CC(=O)c1ccc(NC(=S)NNC(=O)c2ccccc2O)cc1	25 (≈ 8.23 µg/mL)	50 (≈ 16.5 µg/mL)	370	> 100	> 100	> 100	> 100	> 100	> 100	> 100	> 100
O=C(NNC(=S)NCCCN1CCOCC1)c1ccccc1O	> 100	> 400		> 100	> 100	> 100	> 100	> 100	> 100	> 100	> 100
COc1ccccc1NC(=S)NNC(=O)c1ccccc1O	> 100	> 400	550	> 100	> 100	> 100	> 100	> 100	> 100	> 100	> 100
O=C(NNC(=S)Nc1ccc(Cl)cc1Cl)c1ccccc1O	50 (≈ 17.8 µg/mL)	50 (≈ 17.8 µg/mL)	580	25 (≈ 8.91 µg/mL)	50 (≈ 17.8 µg/mL)	25 (≈ 8.91 µg/mL)	50 (≈ 17.8 µg/mL)	25 (≈ 8.91 µg/mL)	50 (≈ 17.8 µg/mL)	50 (≈ 17.8 µg/mL)	25 (≈ 8.91 µg/mL)
O=C(NNC(=S)Nc1ccc(Cl)c(Cl)c1)c1ccccc1	> 100	> 100									
O=C(NNC(=S)Nc1cccnc1)c1ccccc1O	50 (≈ 14.4 µg/mL)	50 (≈ 14.4 µg/mL)		> 100	> 100	> 100	> 100	> 100	> 100	> 100	> 100
O=C(NNC(=S)Nc1cccc(I)c1)c1ccccc1O	> 100	> 400	730	> 100	> 100	> 100	> 100	> 100	> 100	> 100	> 100
O=C(NNC(=S)Nc1ccc(Cl)cc1)c1ccccc1O	> 100	> 400	830	> 100	> 100	> 100	> 100	> 100	> 100	> 100	> 100
O=C(O)c1cn(C2CC2)c2cc(N3CCNCC3)c(F)cc2c1=O [CIPROFLOXACIN]										770 (≈ 255 µg/mL)	
CC(=O)NC[C@H]1CN(c2ccc(N3CCOCC3)c(F)c2)C(=O)O1 [LINEZOLID]							3 (≈ 1.01 µg/mL)	190 (≈ 64.1 µg/mL)			
CN[C@H](CC(C)C)C(=O)N[C@H]1C(=O)N[C@@H](CC(N)=O)C(=O)N[C@H]2C(=O)N[C@H]3C(=O)N[C@H](C(=O)N[C@H](C(=O)O)c4cc(O)cc(O)c4-c4cc3ccc4O)[C@H](O)c3ccc(c(Cl)c3)Oc3cc2cc(c3O[C@@H]2O[C@H](CO)[C@@H](O)[C@H](O)[C@H]2O[C@H]2C[C@](C)(N)[C@H](O)[C@H](C)O2)Oc2ccc(cc2Cl)[C@H]1O [VANCOMYCIN]				700 (≈ 1010 µg/mL)	350 (≈ 507 µg/mL)		5 (≈ 7.25 µg/mL)	0.7 (≈ 1.01 µg/mL)			> 175
